Laboratory results: patent US8455485B2, “Pyrazolo pyridine derivatives as NADPH oxidase inhibitors” (Genkyotex SA, priority 2008, dated 2013)

What was measured:
Assay type in all cases: cell-based, human
NOX activity = assay: Amplex Red measurement of extracellular hydrogen peroxide (NOX activity) using DMSO-differentiated HL60 cells; conditions: for Inhibition (%) of NOX activity: Amplex red, DMSO-differentiated HL60 cells, compound concentration not stated
Experimental: Human acute myeloid leukemia cell line HL-60 was cultured in RPMI 1640 (Invitrogen) supplemented with 10% heat-inactivated calf serum, 2 mM glutamine, 100 U/mL penicillin (Sigma), and 100 μg streptomycin (Sigma) at 37° C. under a humidified atmosphere of 5% CO2. HL60 differentiation to the neutrophil phenotype was triggered by adding Me2SO (final concentration 1.25% v/v for 6 days) to the culture medium.
Extracellular hydrogen peroxide was measured using Amplex UltraRed (Molecular Probes). Cells were trypsinized (1× Trypsin-EDTA), collected by centrifugation, and resuspended in HBSS supplemented with 1% glucose. Cells were seeded into black 96-well plates at a density of 50′000 cells in 200 μl testing buffer (HBSS 1% glucose containing 0.005 U/mL horseradish peroxidase (Roche) and 50 μM Amplex Red in the presence or absence of compounds according to the invention. As a control, DPI was included at a final concentration of 10 μM The plates were placed in the fluorescent Optima Fluorescent plate reader and kept at 37° C. during 20 min Fluorescence was measured for […] with excitation and emission wavelengths of 544 nm and 590 nm respectively. NOX activities were expressed as % of the activity in control cells. Residual activity of DPI-treated cells was usually <10%.
The Table 2 below summarizes the percentage of inhibition of NOX activity as measured by Amplex red using DMSO-differentiated HL60 cells as described above: […]

NOX activities [1] = assay: Nitroblue tetrazolium (NBT) test of intracellular and extracellular superoxide in cells; conditions: DPI at a final concentration of 10 μM
Experimental: Intracellular and extracellular superoxide was measured by a colorimetric technique using a quantitative nitroblue tetrazolium (NBT) test. SOD-inhibitable conversion of NBT to formazan, a fine blue precipitate, in the presence of superoxide anion was measured using Fluostar Optima spectrometer (BMG labtech). Following incubation with appropriate stimuli, cells were trypsinized (1× Trypsin-EDTA), collected by centrifugation, and washed with PBS to remove medium. 5×10^5 cells were plated on 48-well plates and incubated in Hank's balanced salt solution containing 0.5 mg/mL NBT with or without 800 U/mL SOD in the presence or absence of compounds according to the invention. As a control, DPI was included at a final concentration of 10 μM. After 2.5 h, cells were fixed and washed with methanol to remove non reduced NBT. The reduced formazan was then dissolved in 230 μl of 2M potassium hydroxide and in 280 μl of dimethylsulfoxide. The absorption was measured at 630 nm. For calculation, the absorbance at 630 nm was normalized for each individual well. The mean of the four blank values was subtracted from each corrected value for each time point. NOX activities were expressed as % of the activity in control cells. Residual activity of DPI-treated cells was usually <10%.

NOX activities [2] = assay: Chemiluminescence (luminol) measurement of ROS in cells
Experimental: ROS was measured using the chemiluminescent probe luminol. Cells were cultured and plated as for Amplex Red except that the Amplex Red agent was replaced by 10 μg/mL luminol (Sigma 09235). Light emission was recorded continuously at 37° C. for 60 minutes using the luminescence function of the FluoStar Optima fluorescent plate reader. The mean of the four blank values was subtracted from each corrected value for each time point. NOX activities were expressed as % of the activity in control cells. Residual activity of DPI-treated cells was usually <10%.

NOX activities [3] = assay: H2DCF-DA (DCF fluorescence) ROS measurement in TGF-β stimulated HUVEC
Experimental: HUVEC are cultured in endothelial basal medium supplemented with hydrocortisone (1 μg/mL, CalbioChem), bovine brain extract (12 μg/mL), gentamicin (50 μg/mL, CalbioChem), amphotericin B (50 ng/mL, CalBioChem EGF (10 ng/mL, and 10% FCS until the fourth passage. When the fifth passage was started, cells were cultured with a lower concentration of FCS (2%) in the absence of EGF, if not indicated otherwise. All experiments were done with cells of the fifth passage. The cells were incubated with OxLDL (oxidized low-density lipoprotein) or its buffer as control for 24 h, before detection of O2^− formation.
HUVEC were plated on coverslips and made quiescent overnight in 0.5% BSA before stimulation with TGF-β. Cells were loaded for 10 minutes with 5 μM CM-H2DCFDA in phenol-red-free medium in the dark and then treated with TGF-β (R&D Systems) in the presence or absence of compounds according to the invention. Cells were then visualized by immunofluorescence microscopy after fixation and staining of the nuclei with DAPI or examined live using confocal microscopy. DCF fluorescence was visualized at an excitation wavelength of 488 nm and emission at 515 to 540 nm. […] For calculation, the absorbance at […] was normalized to absorbance at […] for each individual well. […] NOX activities were expressed as % of the activity in control cells. […]

| Structure (SMILES) | Inhibition (%) of NOX activity (NOX activity) [%] | other results |
| --- | --- | --- |
| CCN(CC)CCCn1c(COCc2ccccc2)c2c(=O)n(-c3ccccc3Cl)[nH]c2cc1=O [Compound 102, 4-[(benzyloxy)methyl]-2-(2-chlorophenyl)-5-[3-(diethylamino)propyl]-1H-pyrazolo[4,3-c] pyridine-3,6(2H,5H)-dione] | 80 |  |
| CN1CCC(Cn2c(COCc3ccccc3)c3c(=O)n(-c4ccccc4Cl)[nH]c3cc2=O)CC1 [Compound 106, 4-[(benzyloxy)methyl]-2-(2-chlorophenyl)-5-[(1-methylpiperidin-4-yl)methyl]-1H-pyrazolo [4,3-c]pyridine-3,6(2H,5H)-dione] | 81 |  |
| Cn1c(COC(c2ccccc2)C(F)(F)F)c2c(=O)n(-c3ccccc3Cl)[nH]c2cc1=O (stereo not shown) [Compound 108, 2-(2-chlorophenyl)-5-methyl-4-[(2,2,2-trifluoro-1-phenylethoxy)methyl]-1H-pyrazolo[4,3-c] pyridine-3,6(2H,5H)-dione] | 75 |  |
| O=c1c2c(COCc3ccccc3)n(Cc3cnccn3)c(=O)cc2[nH]n1-c1ccccc1Cl [Compound 113, 4-[(benzyloxy)methyl]-2-(2-chlorophenyl)-5-(pyrazin-2-yl-methyl)-1H-pyrazolo[4,3-c]pyridine-3,6(2H,5H)-dione] | 87 |  |
| CN(C)C(=O)Cn1c(COCc2ccccc2)c2c(=O)n(-c3ccccc3Cl)[nH]c2cc1=O [Compound 116, 2-{4-[(benzyloxy)methyl]-2-(2-chlorophenyl)-3,6-dioxo-1,2,3,6-tetrahydro-5H-pyrazolo[4,3-c]pyridin-5-yl)-N,N dimethyl acetamide] | 81 |  |
| CN(CCCc1c2c(=O)n(-c3ccccc3Cl)[nH]c2cc(=O)n1C)c1ccccc1 [Compound 120, 2-(2-chlorophenyl)-5-methyl-4-{3-[methyl (phenyl)amino]propyl}-1H-pyrazolo[4,3-c] pyridine-3,6(2H,5H)-dione] | 77 |  |
| Cn1c(CCCN2CCc3ccccc32)c2c(=O)n(-c3ccccc3Cl)[nH]c2cc1=O [Compound 123, 2-(2-chloro-phenyl)-4-[3-(2,3-dihydro-1H-indol-1-yl)propyl]-5-methyl-1H-pyrazolo[4,3-c] pyridine-3,6(2H,5H)-dione] | 90 |  |
| O=c1c2c(COCc3ccccc3)n(CC3CCCNC3)c(=O)cc2[nH]n1-c1ccccc1Cl (stereo not shown) [Compound 130, 4-[(benzyloxy)methyl]-2-(2-chlorophenyl)-5-(piperidin-3-ylmethyl)-1H-pyrazolo[4,3-c] pyridine-3,6(2H,5H)-dione] | 80 |  |
| Cn1c(COCc2cccc(Cl)c2)c2c(=O)n(-c3ccccc3Cl)[nH]c2cc1=O [Compound 139, 4-{[(3-chlorobenzyl)oxy]methyl}-2-(2-chlorophenyl)-5-methyl-1H-pyrazolo[4,3-c] pyridine-3,6(2H,5H)-dione] | 76 |  |
| COc1cccc(CN(C)Cc2c3c(=O)n(-c4ccccc4Cl)[nH]c3cc(=O)n2C)c1 [Compound 143, 2-(2-chlorophenyl)-4-{[(3-methoxybenzyl) (methyl)amino]methyl}-5-methyl-1H-pyrazolo [4,3-c]pyridine-3,6 (2H,5H)-dione] | 82 |  |
| CN(Cc1cccnc1)Cc1c2c(=O)n(-c3ccccc3Cl)[nH]c2cc(=O)n1C [Compound 147, 2-(2-chlorophenyl)-5-methyl-4-{[methyl (pyridin-3-ylmethyl)amino]methyl}-1H-pyrazolo[4,3-c] pyridine-3,6(2H,5H)-dione] | 80 |  |
| COc1cccc(N2CCN(Cc3c4c(=O)n(-c5ccccc5Cl)[nH]c4cc(=O)n3C)CC2)c1 [Compound 163, 2-(2-chlorophenyl)-4-{[4-(3-methoxyphenyl)piperazin-1-yl]methyl}-5-methyl-1H-pyrazolo[4,3-c]pyridine-3,6(2H,5H)-dione] | 80 |  |
| c1ccc([I+]c2ccccc2)cc1 [DPI, Diphenyl-iodonium] |  | Residual activity of DPI-treated cells (NOX activity as % of the activity in control cells) (NOX activity; Amplex Red, DPI at a final concentration of 10 μM): < 10%; Residual activity of DPI-treated cells (NOX activity as % of the activity in control cells) (NOX activities [1]): < 10%; Residual activity of DPI-treated cells (NOX activity as % of the activity in control cells) (NOX activities [2]): < 10%; Residual activity of DPI-treated cells (NOX activity as % of the activity in control cells) (NOX activities [3]): < 10% |
